Here are results for eight compounds from US20260183302A1, “PDK1 REGULATORY COMPOUND AND COMPOSITION CONTAINING THE SAME” (PROVIBIO CO., LTD., priority 2024, published 2026).

“Also recorded” adds a separate entry of the source.

The subject of data set [1] is HCT-116 colon cancer cell lines. As to the kind of experiment: Matrigel Invasion Assay on HCT-116 colon cancer cell line. The data set is classed as cell-based, human. As to conditions: HCT-116, Matrigel, 24 hours treatment, vs DMSO. As to the method: To evaluate the metastasis inhibitory efficacy of the compounds of the present invention on HCT-116 colon cancer cell lines, an Invasion Assay using Matrigel was performed to assess the cells' invasion ability.
First, Matrigel was thawed on ice in RPMI-1640 medium without FBS, then diluted with DMEM at a ratio of 1:20.
The diluted Matrigel mixture was applied to the upper chamber at 100 μl per well, and 750 μl of RPMI-1640 without FBS was added to the lower chamber.
The plates were then incubated at 37° C. for 1 hour to allow the Matrigel to solidify.
After coating, the Matrigel mixture in the upper chamber was removed using a pipette, and the chamber was washed with RPMI without FBS.
Human-derived colorectal cancer cell line HCT-116, obtained from the Korean Cell Bank, was cultured in RPMI-1640 medium containing 10% FBS.
Following stabilization, the cells were harvested using Trypsin-EDTA treatment, centrifuged at 1,200 rpm for 3 minutes, the supernatant was removed, and the cells were resuspended in the same medium, the medium in the lower chamber was replaced with 750 μl of RPMI-1640 supplemented with 10% FBS, and the cells were seeded into the upper chamber at a density of 5×10^4 cells/well.
The cells were cultured for 24 hours after attachment, and then the compounds according to the present invention (G078, G085, G086, G088, G089, PBK-2024-010, PBK-2025-010, PBK-2025-013, PBK-2025-016) and the control substance DMSO were diluted and added to the upper chamber after removing the medium.
Additionally, the medium in the lower chamber was replaced with fresh RPMI-1640 containing FBS, and the culture was continued.
After an additional 24 hours, the medium was removed, and 1 ml of methanol was added for 10 minutes to fix the cells.
Subsequently, 1 ml of Hematoxylin was added and reacted for 5 minutes, followed by 1 ml of Eosin, which was reacted for 30 seconds. The sample was then washed with distilled water (DW).
After staining was complete, any remaining cells in the upper chamber were removed. Finally, the infiltrated cells were observed under a microscope, photographed, and the degree of infiltration was analyzed.

Data set [2] has as its system T cells isolated from mouse spleens. Briefly: T cell proliferation inhibition (CFSE flow cytometry, anti-CD3/anti-CD28 stimulation). The data set is classed as cell-based, C57BL/6 mice. The conditions noted are these: three days. In a few lines:
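Splenic T cells from 7-week-old C57BL/6 mice, CFSE-labelled, 2× 10^5 cells/well, stimulated with anti-CD3 and anti-CD28 (0.5 μg/mL each). Compound at 10 nM-50 μM in triplicate for three days at 37 °C, 5% CO2; proliferation inhibition (%) derived by flow cytometry.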
On the technique in general: In flow cytometry, cells or beads pass a laser one at a time.

Data set [3] relates to PDK1 phosphorylation in SU-DHL-8 cells. As to the kind of experiment: PDK1 phosphorylation inhibition by flow cytometry (pPDK1-PE) in SU-DHL-8 cells. In kind it is cell-based, human. As to conditions: SU-DHL-8, 24 hours, vs control group, listed as GO48. As to the method:
After stabilizing the cells, the compound of the present invention was added, and the cells were cultured for 24 hours.
After drug treatment, the cells were harvested, and the Fc receptor blocking process was performed. The cells were then fixed and permeabilized using the Intracellular Staining Kit (Cat. No. BD554715) from BD Biosciences. Subsequently, the intracellular pPDK1 was stained using the pPDK1-PE fluorescently labeled antibody (BD Biosciences).
Referring to the figure, the vertical axis represents the phosphorylation level of PDK1 (phospho-PDK1 expression level), and the horizontal axis denotes the concentration-dependent treatment conditions of each compound.

The test system of data set [4] is MRL/lpr mice with hair loss in the facial region. Briefly: Hair loss treatment and hair follicle Ki-67 IHC in MRL/lpr mice. The data set is classed as in vivo. The conditions noted are these: 41-week-old female MRL/lpr; GO15F (30 mg/kg), GO48 (1 mg/kg), GO88 (0.5 mg/kg) intraperitoneal once daily. As to the method:
Additionally, in 41-week-old female MRL/Ipr mice, the compounds GO15F (30 mg/kg), GO48 (1 mg/kg), and GO88 (0.5 mg/kg) were administered intraperitoneally once daily.
To confirm the proliferative activity of hair follicle cells in the skin tissue of these mice, the mice were sacrificed 14 days after administration of the compounds of the present invention, and Ki-67 immunohistochemistry (IHC) was performed.
For this purpose, the excised skin tissue was fixed in formalin, embedded in paraffin blocks, and stained with a Ki-67-specific antibody on tissue sections prepared as slides.

The test system of data set [5] is Human B Lymphocyte cell line, SU-DHL-8. Briefly: Relative cell viability, SU-DHL-8 (CCK-8). As to conditions: 48 hours, untreated (DMSO) = 100%. The data set is classed as cell-based. As to the method: Human-derived B lymphoma cell line SU-DHL-8 (Cat. #CRL-2961) purchased from ATCC was cultured in RPMI-1640 medium containing 10% FBS, 100 U/mL penicillin, and 100 μg/mL streptomycin.
The cell culture medium was then harvested, centrifuged at 1,300 rpm for 5 minutes, and the supernatant was removed. The cells were resuspended in the same medium and dispensed into a 96-well plate (Costar 96-well cell culture plate, Corning) at 90 μL per well, resulting in the conditions specified in Table 5.
Then, 10 μL of CCK-8 was added to each well, and the plates were incubated again at 37° C. in a 5% CO2 incubator for 4 hours.
In other words, when the survival rate of untreated cells (DMSO) is set at 100%, the relative cell survival rate in each group treated with the drug at different concentrations is indicated.

In the case of “12-(4-hydroxypiperazin-1-yl)dodecyl-N-(6-aminopurazin-2-yl) carboxamide [Compound 10]”, the “number of infiltrated cells (invasion)” value in data set [1] is “reduction in the number of infiltrated cells”. The “Proliferation inhibition rate (%)” value in data set [2] (concentration 10 nM), in data set [2] (concentration 100 nM), in data set [2] (concentration 1 μM), in data set [2] (concentration 10 μM), in data set [2] (concentration 30 μM) and in data set [2] (concentration 50 μM) was 100.00% in each case.
Consider `Nc1ncccc1C(=O)NCCCCCCCCCCCCN1CCOCC1` [Compound 2, 2-amino-N-(12-morpholin-4-yl-dodecyl)-nicotinamide], for which the phospho-PDK1 expression level result in data set [3] was “stronger PDK1 inhibition; also recorded: high inhibitory effects even at low concentrations”. For the same compound, in data set [4], the “hair growth on the facial region” value is on record as “hair growth was confirmed”.
`Nc1ncccc1C(=O)NCCCCCCCCCCCCN1CCNCC1` [Compound 5, 2-Amino-N-(12-(piperazin-1-yl)dodecyl)-nicotinamide]: in data set [1], the “number of infiltrated cells (invasion)” value is on record as “reduction in the number of infiltrated cells”.
With `O=C(NCCCCCCCCCCCCN1CCN2CCCC2C1)c1cccnc1` (stereo not drawn) [Compound 23, N-(12-(hexahydropyrrolo[1,2-a]pyrazin-2 (1H)-yl)dodecyl) nicotinamide], the “number of infiltrated cells (invasion)” value in data set [1] is “reduction in the number of infiltrated cells”.
Consider `CC(C)(C)OC(=O)N[C@H]1CCN(CCCCCCCCCCCCNC(=O)c2cccnc2N)C1` [Compound 49, tert-Butyl(S)-(1-(12-(2-aminonicotinamido)dodecyl)pyrrolidin-3-yl) carbamate], for which the “number of infiltrated cells (invasion)” value in data set [1] is listed as “reduction in the number of infiltrated cells”. The “Proliferation inhibition rate (%)” value in data set [2] (concentration 100 nM), in data set [2] (concentration 1 μM), in data set [2] (concentration 10 μM), in data set [2] (concentration 30 μM) and in data set [2] (concentration 50 μM) was 100.00% throughout. For the same compound, the “Relative cell viability (%)” value in data set [5] (SU-DHL-8, 1 μM) stood at 8.93%; in data set [5] (SU-DHL-8, 10 μM), 8.02%; in data set [5] (SU-DHL-8, 30 μM) it was 7.48%; in data set [5] (SU-DHL-8, 50 μM) it was 4.09%.
Turning to `Nc1ncccc1C(=O)NCCCCCCCCCCCCN1CC(F)C1` [Compound 52, 2-Amino-N-(12-(3-fluoroazetidin-1-yl)dodecyl)nicotinamide], the “number of infiltrated cells (invasion)” value in data set [1] is “reduction in the number of infiltrated cells”.
On to `COC1CCN(CCCCCCCCCCCCNC(=O)c2cccnc2N)C1` (stereo not drawn) [Compound 126, 2-amino-N-(12-(3-methoxypyrrolidin-1-yl)dodecyl) nicotinamide], for which the “Proliferation inhibition rate (%)” value in data set [2] (concentration 10 nM, listed as K-PB-48, 0.01 µM) stood at 0.00%; in data set [2] (concentration 100 nM), 100.00%; in data set [2] (concentration 1 μM), 100.00%; in data set [2] (concentration 10 μM), 100.00%; in data set [2] (concentration 30 μM), 100.00%; in data set [2] (concentration 50 μM), 100.00%. The “Relative cell viability (%)” value in data set [5] (SU-DHL-8, 1 μM, listed as K-PB-48, 1 µM) was 33.03%; in data set [5] (SU-DHL-8, 10 μM, listed as K-PB-48, 10 µM), 31.98%; in data set [5] (SU-DHL-8, 30 μM, listed as K-PB-48, 30 µM), 32.32%; in data set [5] (SU-DHL-8, 50 μM, listed as K-PB-48, 50 µM), 30.44%.
Consider `Nc1ncccc1C(=O)NCCCCCCCCCCCCN1CC=CC1` [Compound 129, 2-amino-N-(12-(2,5-dihydro-1H-pyrrol-1-yl)dodecyl) nicotinamide], for which the “Proliferation inhibition rate (%)” value is 0.00% in data set [2] (concentration 10 nM); 90.00% in data set [2] (concentration 100 nM); 100.00% in data set [2] (concentration 1 μM); 100.00% in data set [2] (concentration 10 μM); 100.00% in data set [2] (concentration 30 μM); 100.00% in data set [2] (concentration 50 μM). For the same compound, the “Relative cell viability (%)” value is recorded as 34.26% in data set [5] (SU-DHL-8, 1 μM); 33.99% in data set [5] (SU-DHL-8, 10 μM); 35.05% in data set [5] (SU-DHL-8, 30 μM); 34.27% in data set [5] (SU-DHL-8, 50 μM).
